# Measurements: patent US20240409662A1, “ANTIBODY MASKS AND USES THEREOF” (Vibrant Pharma Limited, priority 2021, published 2024)
# Read-outs that look alike come from different tables or passages of the source. No end group written: not given here.
# B1: SP34-CEA (bispecific antibody)
# heavy: EVKLLESGGGLVQPKGSLKLSCAASGFTFNTYAMNWVRQAPGKGLEWVARIRSKYNNYATYYADSVKDRFTISRDDSQSILYLQMNNLKTEDTAMYYCVRHGNFGNSYVSWFAYWGQGTLVTVSS
# light: QAVVTQESALTTSPGETVTLTCRSSTGAVTTSNYANWVQEKPDHLFTGLIGGTNKRAPGVPARFSGSLIGDKAALTITGAQTEDEAIYFCALWYSNLWVFGGGTKVEIK
# chain: EVQLVESGGGFVQAGESLTLSCTSSTLTFTPYRMAWYRQAPGKQRDLVADISSGDGRTTNYADFAKGRFTISRDNIKNTVFLRMTNLKPEDTAVYYCNTFVSFVGIARSWGQGTQVTVSSESKYGPPCPPCPAPEAAGGPSVFLFPPKPKDTLMISRTPEVTCVVVDVSQEDPEVQFNWYVDGVEVHNAKTKPREEQFNSTYRVVSVLTVLHQDWLNGKEYKCKVSNKGLPSSIEKTISKAKGQPREPQVCTLPPSQEEMTKNQVSLSCAVKGFYPSDIAVEWESNGQPENNYKTTPPVLDSDGSFFLVSRLTVDKSRWQEGNVFSCSVMHEALHNRFTQKSLSLSL
# B2: MMP9-digested L7-D2G (bispecific antibody, not shown: small tags and cut ends)
# heavy: EVKLLESGGGLVQPKGSLKLSCAASGFTFNTYAMNWVRQAPGKGLEWVARIRSKYNNYATYYADSVKDRFTISRDDSQSILYLQMNNLKTEDTAMYYCVRHGNFGNSYVSWFAYWGQGTLVTVSS
# light: QAVVTQESALTTSPGETVTLTCRSSTGAVTTSNYANWVQEKPDHLFTGLIGGTNKRAPGVPARFSGSLIGDKAALTITGAQTEDEAIYFCALWYSNLWVFGGGTKVEIK
# chain: EVQLVESGGGFVQAGESLTLSCTSSTLTFTPYRMAWYRQAPGKQRDLVADISSGDGRTTNYADFAKGRFTISRDNIKNTVFLRMTNLKPEDTAVYYCNTFVSFVGIARSWGQGTQVTVSSESKYGPPCPPCPAPEAAGGPSVFLFPPKPKDTLMISRTPEVTCVVVDVSQEDPEVQFNWYVDGVEVHNAKTKPREEQFNSTYRVVSVLTVLHQDWLNGKEYKCKVSNKGLPSSIEKTISKAKGQPREPQVCTLPPSQEEMTKNQVSLSCAVKGFYPSDIAVEWESNGQPENNYKTTPPVLDSDGSFFLVSRLTVDKSRWQEGNVFSCSVMHEALHNRFTQKSLSLSL
# B3: MMP9-digested L6-D2E (bispecific antibody, not shown: small tags and cut ends)
# heavy: EVKLLESGGGLVQPKGSLKLSCAASGFTFNTYAMNWVRQAPGKGLEWVARIRSKYNNYATYYADSVKDRFTISRDDSQSILYLQMNNLKTEDTAMYYCVRHGNFGNSYVSWFAYWGQGTLVTVSS
# light: QAVVTQESALTTSPGETVTLTCRSSTGAVTTSNYANWVQEKPDHLFTGLIGGTNKRAPGVPARFSGSLIGDKAALTITGAQTEDEAIYFCALWYSNLWVFGGGTKVEIK
# chain: EVQLVESGGGFVQAGESLTLSCTSSTLTFTPYRMAWYRQAPGKQRDLVADISSGDGRTTNYADFAKGRFTISRDNIKNTVFLRMTNLKPEDTAVYYCNTFVSFVGIARSWGQGTQVTVSSESKYGPPCPPCPAPEAAGGPSVFLFPPKPKDTLMISRTPEVTCVVVDVSQEDPEVQFNWYVDGVEVHNAKTKPREEQFNSTYRVVSVLTVLHQDWLNGKEYKCKVSNKGLPSSIEKTISKAKGQPREPQVCTLPPSQEEMTKNQVSLSCAVKGFYPSDIAVEWESNGQPENNYKTTPPVLDSDGSFFLVSRLTVDKSRWQEGNVFSCSVMHEALHNRFTQKSLSLSL
# B4: L4-D2E (bispecific antibody)
# heavy: QEGNEEGSGSPLGLGSGSEVKLLESGGGLVQPKGSLKLSCAASGFTFNTYAMNWVRQAPGKGLEWVARIRSKYNNYATYYADSVKDRFTISRDDSQSILYLQMNNLKTEDTAMYYCVRHGNFGNSYVSWFAYWGQGTLVTVSS
# light: QAVVTQESALTTSPGETVTLTCRSSTGAVTTSNYANWVQEKPDHLFTGLIGGTNKRAPGVPARFSGSLIGDKAALTITGAQTEDEAIYFCALWYSNLWVFGGGTKVEIK
# chain: EVQLVESGGGFVQAGESLTLSCTSSTLTFTPYRMAWYRQAPGKQRDLVADISSGDGRTTNYADFAKGRFTISRDNIKNTVFLRMTNLKPEDTAVYYCNTFVSFVGIARSWGQGTQVTVSSESKYGPPCPPCPAPEAAGGPSVFLFPPKPKDTLMISRTPEVTCVVVDVSQEDPEVQFNWYVDGVEVHNAKTKPREEQFNSTYRVVSVLTVLHQDWLNGKEYKCKVSNKGLPSSIEKTISKAKGQPREPQVCTLPPSQEEMTKNQVSLSCAVKGFYPSDIAVEWESNGQPENNYKTTPPVLDSDGSFFLVSRLTVDKSRWQEGNVFSCSVMHEALHNRFTQKSLSLSL
# Tests used:
# SP34 = test: Masking capability of potential masks of SP34 (ELISA, BLI); format: binding; conditions: mask and linker fused to SP34 VH and/or VL
# Experimental: Binding of the 19 M-TCEs to both their antigens CEACAM5 and CD3δε was assessed with BLI using ForteBio Red96 as described above.
# HT29 cells = test: PBMC co-cultivation assay, M-TCE-induced killing of HT29 cells; format: cell-based, human; conditions: for EC50: HT29 + human PBMC, 72 hours, read-out: Efficacy (EC50); for tumor cell killing efficacy: digested vs undigested, in words; for Digested vs. masked: ratio of EC50 non-digested to MMP9-digested
# Experimental: Five digested and undigested M-TCEs were tested for their tumor cell killing capability in the presence of human PBMC.
# A total of 5×10^3 cells in RPMI1640 medium (supplemented with 10% FBS and 2 mM glutamine) of the target cell line (HT29) were seeded in 96-well plates (Day 0). A dilution series of respective antibodies was performed in assay media and added to target cells. On Day 0, a total of 5×10^4 PBMCs were added to each well, and the final reaction volume was adjusted to 200 μl. Percentage viability of target cell was measured by […]. LDH was measured after 72 hours using the Cell Counting Kit-8 (CK04, Dojindo, Japan) according to the manufacturer's recommendations. The results were analyzed as mean and standard deviation (SD) from triplicate wells and plotted as 4-parameter non-linear regression fittings using GraphPad Prism 9 software (GraphPad Software, San Diego, CA, USA).
# CD3 on human PBMC = CD3 on human PBMC (human, UniProt P07766 23-207); test: cell-based or functional assay
# Sequence of CD3 on human PBMC (P07766 23-207): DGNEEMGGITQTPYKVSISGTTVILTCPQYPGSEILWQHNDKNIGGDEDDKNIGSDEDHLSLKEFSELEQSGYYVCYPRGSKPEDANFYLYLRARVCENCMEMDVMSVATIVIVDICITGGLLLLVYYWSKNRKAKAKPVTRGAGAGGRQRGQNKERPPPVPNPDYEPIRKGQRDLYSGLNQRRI
Molecule,Masking Capability (SP34),further results
"L2-D2R: M-TCE; QRGNEEGSPLGLGS-SP34VH, SEQ ID NO 25",No,–
"L2-D2E: M-TCE; QEGNEEGSPLGLGS-SP34VH, SEQ ID NO 26",Yes,–
"L6-WT: M-TCE; QDGNEESSGGGSPLGLSSGGGS-SP34VH, SEQ ID NO 17",Yes,–
"L2-Q1H: M-TCE; HDGNEEGSPLGLGS-SP34VH, SEQ ID NO 22",No,–
"L5-D2G: M-TCE; QGGNEESSGGSPLGLSSGGS-SP34VH, SEQ ID NO 34",Yes,–
"L7-G3A: M-TCE; QDANEESSGGSGSPLGLSSGGSGS-SP34VH, SEQ ID NO 42",Yes,–
"L2-D2G: M-TCE; QGGNEEGSPLGLGS-SP34VH, SEQ ID NO 32",Yes,–
"L7-D2E: M-TCE; QEGNEESSGGSGSPLGLSSGGSGS-SP34VH, SEQ ID NO 30",Yes,–
"L2-Q1E: M-TCE; EDGNEEGSPLGLGS-SP34VH, SEQ ID NO 19",No,–
"L5-D2E: M-TCE; QEGNEESSGGSPLGLSSGGS-SP34VH, SEQ ID NO 28",Yes,EC50 (HT29 cells; MMP9-digested): 0.013 nM; EC50 (HT29 cells; Non-digested): 0.418 nM; tumor cell killing efficacy (HT29 cells): higher efficacy in inducing tumor cell killing than their undigested counterparts; Digested vs. masked (HT29 cells): 32×
"L7-WT: M-TCE; QDGNEESSGGSGSPLGLSSGGSGS-SP34VH, SEQ ID NO 18",Yes,–
"LC-L4-G2E: M-TCE, mask on VL; QEGNEEGSGSPLGLGSGS-SP34VL, SEQ ID NO 27",Yes,–
"L4-D2G: M-TCE; QGGNEEGSGSPLGLGSGS-SP34VH, SEQ ID NO 33",Yes,–
"L0-WT: M-TCE; QDGNEEPLGL-SP34VH, SEQ ID NO 12",Yes,–
"L2-G3A: M-TCE; QDANEEGSPLGLGS-SP34VH, SEQ ID NO 38",Yes,–
"L5-WT: M-TCE; QDGNEESSGGSPLGLSSGGS-SP34VH, SEQ ID NO 16",Yes,–
"L2-Q1V: M-TCE; VDGNEEGSPLGLGS-SP34VH, SEQ ID NO 23",No,–
"L4-WT: M-TCE; QDGNEEGSGSPLGLGSGS-SP34VH, SEQ ID NO 15",Yes,–

Molecule,Masking Capability (SP34),further results
"L2-D2I: M-TCE; QIGNEEGSPLGLGS-SP34VH, SEQ ID NO 31",No,–
"L6-G3A: M-TCE; QDANEESSGGGSPLGLSSGGGS-SP34VH, SEQ ID NO 41",Yes,–
"L5-G3A: M-TCE; QDANEESSGGSPLGLSSGGS-SP34VH, SEQ ID NO 40",Yes,–
"L2-WT: M-TCE; QDGNEEGSPLGLGS-SP34VH, SEQ ID NO 13",Yes,–
"L6-D2E: M-TCE; QEGNEESSGGGSPLGLSSGGGS-SP34VH, SEQ ID NO 29",Yes,EC50 (HT29 cells; MMP9-digested): 0.01 nM; EC50 (HT29 cells; Non-digested): 0.317 nM; tumor cell killing efficacy (HT29 cells): higher efficacy in inducing tumor cell killing than their undigested counterparts; Digested vs. masked (HT29 cells): 32×
"L3-WT: M-TCE; QDGNEESGSPLGLSGG-SP34VH, SEQ ID NO 14",Yes,–
"L6-D2G: M-TCE; QGGNEESSGGGSPLGLSSGGGS-SP34VH, SEQ ID NO 35",Yes,–
"L4-G3R: M-TCE; QDRNEEGSGSPLGLGSGS-SP34VH, SEQ ID NO 44",Yes,–
"L2-Q1S: M-TCE; SDGNEEGSPLGLGS-SP34VH, SEQ ID NO 20",No,–
"L7-D2G: M-TCE; QGGNEESSGGSGSPLGLSSGGSGS-SP34VH, SEQ ID NO 36",Yes,EC50 (HT29 cells; MMP9-digested): 0.011 nM; EC50 (HT29 cells; Non-digested): 0.096 nM; tumor cell killing efficacy (HT29 cells): higher efficacy in inducing tumor cell killing than their undigested counterparts; Digested vs. masked (HT29 cells): 9×
"L2-G3I: M-TCE; QDINEEGSPLGLGS-SP34VH, SEQ ID NO 37",No,–
"L2-Q1Y: M-TCE; YDGNEEGSPLGLGS-SP34VH, SEQ ID NO 21",No,–
"L6-G3R: M-TCE; QDRNEESSGGGSPLGLSSGGGS-SP34VH, SEQ ID NO 45",Yes,–
B1,–,EC50 of M-TCE-induced killing of HT29 cells in the presence of human PBMC (CD3 on human PBMC): 0.001 nM
B2,–,EC50 of M-TCE-induced killing of HT29 cells in the presence of human PBMC (CD3 on human PBMC): 0.011 nM
B3,–,EC50 of M-TCE-induced killing of HT29 cells in the presence of human PBMC (CD3 on human PBMC): 0.01 nM
B4,–,Digested vs. masked (ratio of killing EC50) (CD3 on human PBMC): 59 fold; EC50 of M-TCE-induced killing of HT29 cells in the presence of human PBMC (CD3 on human PBMC): 0.65 nM
